# According to patent publication US9006218B2, “Nucleoside phosphonate salts” (Chimerix Inc., priority 2010, dated 2015):
# Structures can show the parent of a compound that is named as a salt. Where two headings read alike, the source gives them in different places.
# What was measured:
# [1] = Cytotoxicity in LNCaP cells; type: cell-based; settings: human
# Description: (§1) Specifically, the anti-XMRV activity assay was completed in LNCaP cells (6 day assay) according to the methods described in PLoS ONE, volume 5 (4), April 2010, e9948, pages 1-7.
# (§2) The cytotoxicity of CMX157 in LNCaP cells was also tested.
# XMRV = assay: Anti-XMRV activity assay in LNCaP cells (6 day assay); type: cell-based
# Source text: as §1
# [2] = test system: XMRV collected from 22Rv1 prostate cancer cells; assay: Anti-XMRV cytoprotection assay in PG-4 cells (XTT); type: cell-based, xenotropic murine retrovirus (XMRV)
# Description: The test materials were evaluated in PG-4 cells against XMRV collected from the cell-free supernatant of 22Rv1 prostate cancer cells using a complete dose response curve. The experimental details and results are discussed below.
# Test materials (CMX157 K^+ salt and Tenofovir) were solubilized at 40 mM and 10 mM in water, respectively, and stored at −20° C. Test materials were evaluated using a 1 μM high test concentration and serially diluted in half-log increments for the in vitro antiviral assay (SOW104-11-01). A second assay was performed (SOW104-11-02) using a 1 μM high test concentration for CMX157, but an increased high test concentration of 100 μM for tenofovir. Ribavirin was purchased from Sigma and used as a positive control compound.
# (§3) PG-cells (ATCC# CRL-2032; feline astrocytes) were passaged in T-75 flasks in McCoy's 5A medium supplemented with 10% heat inactivated fetal bovine serum, 2 mmol/L L-glutamine, 100 U/ml penicillin and 100 μg/ml streptomycin prior to use in the antiviral assay. On the day preceding the assay, cells were split 1:2 to assure they were in an exponential growth phase at the time of infection. Total cell and viability quantification were performed using a hemocytometer and Trypan Blue dye exclusion. Cell viability was to be greater than 95% for the cells to be utilized in the assay. The cells were resuspended at 5×10^4 cells per ml (SOW104-11-01) or 1×10^5 cells per mL (SOW104-11-02) in tissue culture medium and added to flat bottom microtiter plates in a volume of 100 μI for overnight incubation at 37° C./5% CO2.
# (§4) Serial half-log dilutions were performed. Media was removed from the cell monolayer and 100 μL of 2× concentrations of compound-containing media (DMEM supplemented with 2% FBS, 2 mmol/L L-glutamine, 100 U/ml penicillin and 100 μg/ml streptomycin for SOW104-11-01 or PG-4 cell culture medium for SOW104-11-02) was transferred to the 96-well microtiter plate.
# The XMRV virus was collected from the cell-free supernatant of 22Rv1 human prostate cancer cells (ATCC# CRL-2505). A pretitered aliquot of virus was removed from the freezer (−80° C.) and allowed to thaw in a biological safety cabinet. The virus was diluted into 2% FBS assay medium such that the amount of virus added to each well in a volume of 100 μl is the amount determined to yield 85 to 95% cell killing at six days post infection (based on optical density values) for SOW104-11-01. PG-4 cell culture medium was used to dilute virus in a volume of 100 μl is the amount determined to yield 85 to 95% cell killing at six days post infection for SOW104-11-02.
# (§5) Inhibition of virus induced cytopathic effects (CPE) was quantified by measuring the reduction of the tetrazolium dye XTT (2,3-bis(2-methoxy-4-nitro-5-sulfophenyl)-5-[(phenylamino)carbonyl]-2H-tetrazoIium hydroxide). XTT in metabolically active cells is metabolized by the mitochondrial enzyme NADPH oxidase to a soluble formazan product. XTT solution was prepared daily as a stock of 1 mg/mL in PBS. Phenazine methosulfate (PMS) solution was prepared at 0.15 mg/mL in PBS and stored in the dark at −20° C. XTT/PMS stock was prepared immediately before use by adding 40 μL of PMS per mL of XTT solution. 50 μL of XTT/PMS was added to each well of the plate and the plate incubated for 4 h at 37° C. The 4 h incubation has been empirically determined to be within the linear response range for XTT dye reduction with the indicated numbers of cells for each assay. Adhesive plate sealers were used in place of the lids, the sealed plate was inverted several times to mix the soluble formazan product and the plate was read at 450 nm (650 nm reference wavelength) with a Molecular Devices SpectraMax Plus 384 96 well plate format spectrophotometer.
# Raw data was collected from the Softmax Pro 4.6 software and imported into a Microsoft Excel XLfit4 spreadsheet to analyze (four parameter curve fit analysis) and graph the data. […] The EC50, EC90, TC50 and TC90 are expressed means±standard deviation.
# [3] = Cytotoxicity in PG-4 cells (XTT, TC50); type: cell-based, feline; settings: cat
# Description: as §3, §4, §5
# (§6) Raw data was collected from the Softmax Pro 4.6 software and imported into a Microsoft Excel XLfit4 spreadsheet to analyze (four parameter curve fit analysis) and graph the data. Using Microsoft Excel, EC50 and EC90 (50% and 90% inhibition of virus replication), TC50 and TC90 (50% and 90% reduction in cell viability) and a therapeutic index (TI, TC50/EC50 and TC90/EC90) are provided. The EC50, EC90, TC50 and TC90 are expressed means±standard deviation. The significant figure is three digits. Raw data for both antiviral activity and toxicity with a graphic representation of the data are provided in a printout summarizing the individual compound activity.
# [4] = type: physicochemical; settings: general statement, see Example 2
# Description: Stability testing was performed for CMX157 and its salts to investigate the quality of the compound over time under various environments. Accelerated conditions were established using an Isotemp Vacuum Oven set at either 40° C. or 60° C. If high humidity was needed, a saturated solution of sodium chloride created an air state containing about 75% humidity.
# For determining the amount of CMX157 present in the samples within the stability study, a reference standard of a known purity was used. […] For analysis, 40 mg of samples and standards are dissolved in 100.0 mL diluent (80 H2O: 20 Methanol: 2 NH4OH). Separation of the drug substance and impurities was achieved using a mobile phase gradient (Table 1) on a Shimadzu A20 HPLC with a Phenomenex Synergi Polar RP 4μ 150×3 mm column. By comparing the areas for the samples at wavelength of 259 nm (kmax) to that of the reference standard, the percentage of CMX157 was determined.
# LNCaP cells = assay: Cytotoxicity in LNCaP cells; type: cell-based; settings: LNCaP cells
# Description: as §1, §2
# PG-4 cells = assay: Cytotoxicity in PG-4 cells (XTT, TC50); type: cell-based, feline
# Description: as §3, §4, §5, §6
# [5] = LNCaP cells, read-out: Cytotoxicity (IC50) LNCaP cells
# [6] = unidentified retrovirus, 22Rv1, in Mus musculus, read-out: PG-4/XMRV EC50, assay SOW104-11-02: 1×10^5 cells per mL, PG-4 cell culture medium
# [7] = third determination listed in Table 3, run not given
# [8] = unidentified retrovirus, 22Rv1, in Mus musculus, read-out: PG-4/XMRV EC50, assay SOW104-11-01: 5×10^4 cells per ml, DMEM 2% FBS
# [9] = unidentified retrovirus, 22Rv1, in Mus musculus, read-out: PG-4/XMRV EC50, third determination listed in Table 3, run not stated
structure (smiles),measurement,setting,value
Cc1nnc(C(=O)NC(C)(C)c2nc(C(=O)NCc3ccc(F)cc3)c(O)c(=O)n2C)o1 [Raltegravir],IC50,[1]; [5],> 100 µM
same,EC50,XMRV; 144 h,0.54 ± 0.57 nM
same,EC90,XMRV; 144 h,3.2 ± 2.9 nM
CC(C)(C)NC(=O)[C@@H]1CN(Cc2cccnc2)CCN1C[C@@H](O)C[C@@H](Cc1ccccc1)C(=O)N[C@H]1c2ccccc2C[C@H]1O [IDV (Indinavir)],Therapeutic Index (TC50/EC50),[2]; assay SOW104-11-02,2.7
same,EC50,[2]; [6],800 nM
same,CC50,[3]; PG-4 TC50,2200 nM
"CCCCCCCCCCCCCCCCOCCCOP(=O)(O)CO[C@H](C)Cn1cnc2c(N)ncnc21 [CMX157, 3-(hexadecyloxy)propyl hydrogen ((R)-1-(6-amino-9H-purin 9-yl)propan-2-yloxy)methylphosphonate]","stability in words, free acid versus salts",[4],relatively unstable
same,EC50 lower than AZT,"[2]; XMRV in vitro, versus AZT",approximately 20 fold
same,EC50 lower than TFV,"[2]; XMRV in vitro, versus TFV",~800 fold
same,Therapeutic Index (TC50/EC50),[2]; assay SOW104-11-01,10.0
same,Therapeutic Index (TC50/EC50),[2]; assay SOW104-11-02,>333.0
same,Therapeutic Index (TC50/EC50),[2]; [7],97.8
same,EC50,[2]; [8],40 nM
same,EC50,[2]; [6],3 nM
same,EC50,[2]; [9],60 nM
same,IC50,[1]; [5],> 100 µM
same,CC50,"[3]; assay SOW104-11-01, read-out: PG-4 TC50",400 nM
same,CC50,"[3]; assay SOW104-11-02, read-out: PG-4 TC50",> 1000 nM
same,CC50,"[3]; third determination listed in Table 3, run not given, read-out: PG-4 TC50",5900 nM
same,EC50,XMRV; 144 h,3.1 ± 2.1 nM
same,EC90,XMRV; 144 h,37 ± 16 nM
"C[C@H](Cn1cnc2c(N)ncnc21)OCP(=O)(O)O [Tenofovir, (R)-9-(2-phosphonylmethoxypropyl)adenine]",EC50,"[2]; assay SOW104-11-01: 5×10^4 cells per ml, DMEM 2% FBS, read-out: PG-4/XMRV EC50",> 1000 nM
same,Therapeutic Index (TC50/EC50),[2]; assay SOW104-11-02,>41.5
same,EC50,"[2]; assay SOW104-11-02: 1×10^5 cells per mL, PG-4 cell culture medium, read-out: PG-4/XMRV EC50",2400 nM
same,Therapeutic Index (TC50/EC50),[2]; [7],>38.6
same,EC50,"[2]; third determination listed in Table 3, run not given, read-out: PG-4/XMRV EC50",2600 nM
same,IC50,LNCaP cells,> 100 µM
same,CC50,PG-4 cells; assay SOW104-11-01,> 1 µM
same,CC50,PG-4 cells; assay SOW104-11-02,> 100 µM
same,CC50,PG-4 cells; [7],> 100 µM
same,EC50,XMRV,4500 ± 3800 nM
same,EC90,XMRV,17400 ± 9000 nM
"Cc1cn([C@H]2C[C@H](N=[N+]=[N-])[C@@H](CO)O2)c(=O)[nH]c1=O [AZT, 3′-azido-2′,3′-dideoxythymidine]",EC50,[2]; [8],800 nM
same,EC50,[2]; [6],70 nM
same,EC50,[2]; [9],600 nM
same,IC50,[1],> 100 µM
same,EC50,XMRV; 144 h,8.1 ± 11 nM
same,EC90,XMRV; 144 h,55 ± 51 nM
"NC(=O)c1ncn([C@@H]2O[C@H](CO)[C@@H](O)[C@H]2O)n1 [Ribavirin, 1-β-D-ribofuranosyl-1,2,4-triazole-3-carboxamide]",Therapeutic Index (TC50/EC50),[2]; assay SOW104-11-01,6.5
same,EC50,"[2]; unidentified retrovirus, 22Rv1, in Mus musculus, read-out: PG-4/XMRV EC50, Ribavirin in μg/mL, control of SOW104-11-01",10.1 µg/mL
same,PG-4 TC50,PG-4 cells; cat,65.2 µg/mL
"CC(C)OC(=O)OCOP(=O)(CO[C@H](C)Cn1cnc2c(N)ncnc21)OCOC(=O)OC(C)C [Tenofovir disoproxil fumarate, 2,4,6,8-Tetraoxa-5-phosphanonanedioic acid, 5-[[(1R)-2-(6-amino-9H-purin-9-yl)-1-methylethoxy]methyl]-, bis(1-methylethyl)ester, 5-oxide, (2E)-2-butenedioate (1:1)]",IC50,[1],87.4 µM
same,EC50,XMRV; 144 h,29 ± 26 nM
same,EC90,XMRV; 144 h,210 ± 150 nM
